Converted amounts (≈) assume the structure as drawn. Like-named read-outs stand apart in the source and are kept apart here.
How the values were obtained:
A2780 cells [1] = assay: MTT cytotoxicity assay, A2780; format: cell-based, human
A2780cisR cells = assay: MTT cytotoxicity assay, A2780cisR; format: cell-based, human; details: for RF (resistance factor): IC50(A2780cisR)/IC50(A2780); for IC50: MTT assay, 72 h exposure, cisplatin-resistant A2780cisR, read-out: IC50 A2780cis
HEK293 cells = assay: MTT cytotoxicity assay, HEK293; format: cell-based, human; details: for SF (selectivity factor): IC50(HEK293)/IC50(A2780); for IC50: MTT assay, 72 h exposure, noncancerous cells
[2] = n-octanol/water distribution coefficient, shake-flask; format: physicochemical; details: n-octanol/buffered aqueous solution, pH 7.40, UV-vis; for logD: pH 7.4, read-out: log D7.4
Experimental: The titrations were carried out under a nitrogen atmosphere.

A2780 cells [3] = assay: Cellular accumulation of Cu by ICP-MS; format: cell-based, human; details: 24 h exposure, 1 μM
Excerpt: The ability of anticancer drugs to penetrate biological membranes, tissues, and barriers underlies their biological, pharmacokinetic, and metabolic properties. These properties can be predicted by calculating physicochemical characteristics of drug candidates using molecular descriptors.[30] […] The results are shown in Table S7 in the Supporting Information. On the basis of the calculated physicochemical parameters, we determined if novel compounds belonged to the drug-like chemical space, which is commonly defined by the well-known Lipinski rule, or to the known drug space (KDS), which includes all small compounds in medical use.[31] […] Following the calculations, we determined the lipophilicity of all compounds experimentally (log D7.4, Tables 1 and 2). It is known that cancer cells accumulate hydrophilic compounds to a smaller extent relative to hydrophobic compounds, thereby affecting their activity. […] As expected, proligands were more lipophilic than the corresponding Cu(II) species, which are positively charged at physiological pH (Figure 3b). […] The lipophilicity of 2–5 increased in the following order 4 < 2 < 3 < 5, and correlated well with their cytotoxicity in cancer cells, with the exception of 3. Subsequently, we determined the total cellular accumulation of Cu in A2780 cells by ICP–MS upon 24 h exposure to 1–6 in comparison with CuCl2 (Table 2). […] The accumulation increased in the order 6 < 1 < 3 < 4 < 2 < 5.
Cellular accumulation of 1–6 was determined in A2780 cells. Cells were seeded into Cellstar 6-well plates (Greiner Bio-one) at a density of 60 × 10^4 cells/well (2 mL per well). After the cells were allowed to resume exponential growth for 24 h, they were exposed to 1–6 at 1 μM for 24 h at 37 °C. The cells were washed twice with 1 mL of PBS and lysed with RIPA lysis buffer for 5–10 min at 4 °C. The cell lysates were scraped from the wells and transferred to separate 1.5 mL microtubes. The supernatant was then collected after centrifugation (13 000 rpm, 4 °C for 15 min) and total protein content of each sample was quantified via Bradford’s assay. Cell lysates were transferred to 2 mL glass vials and then digested with ultrapure 65% HNO3 at 100 °C for 24 h. The resulting solution was diluted to 1 mL (2–4% v/v HNO3) with ultrapure Milli-Q water. Cu content of each sample was quantified by ICP–MS. In was used as an internal standard. Cu and In were measured at m/z 64 and m/z 115, respectively. Metal standards for calibration curve (0, 0.5, 1, 2, 5, 10, 20, and 40 ppb) were freshly prepared before each measurement. All readings were made in triplicates in He mode. For temperature-dependent cellular accumulation experiments, A2780 cells were seeded into 35 n 10 mm tissue culture plates at a density of 60 0 10^4 cells/plate. After the cells were allowed to resume exponential growth for 24 h, they were exposed to 2 at 3 μM for 10, 30, 60, and 120 min at 37 and 4 °C. The subsequent analysis was performed as described above. For energy-dependent experiments, A2780 cells were seeded into 35 5 10 mm tissue culture plates at a density of 1 0 10^6 cells/plate. After the cells were allowed to resume exponential growth for 24 h, they were preincubated with oligomycin (5 μM) for 1 or 4 h or with cycloheximide (100 μM) for 4 h and further co-incubated with 3 μM of 2 at 37 °C. To induce total starvation, after the cells were allowed to resume exponential growth for 24 h, RPMI media was replaced with HBSS, and cells were preincubated in HBSS for 1 h and further incubated with 3 μM of 2 for 1 h at 37 °C. The subsequent analysis was performed as described above.

[4] = system: Staphylococcus aureus CECT 86 (ATCC 12600); assay: MIC microdilution, S. aureus; format: cell-based; details: planktonic cells; for S. aureus MIC50 / MIC50: growth inhibited at 50%; for S. aureus MIC100 / MIC: lowest concentration completely inhibiting growth; for MIC50 / MIC: Staphylococcus aureus; for MIC: read-out: S. aureus MIC100
Experimental: (§1) Wild-type P. aeruginosa PAO1 strain CECT 4122 (ATCC 15692) and S. aureus CECT 86 (ATCC 12600) were obtained from the Spanish Type Culture Collection (CECT). All strains were routinely cultivated in TSB medium (Sharlab, Spain) at 37 °C. MIC assays were determined by the microdilution method using TSB broth following the method described by the Clinical and Laboratory standards Institute.[94] In brief, compounds were diluted in a 96-well microtiter plate (tissue culture-treated polystyrene; […]

[5] = system: Pseudomonas aeruginosa PAO1 CECT 4122 (ATCC 15692); assay: MIC microdilution, P. aeruginosa; format: cell-based; details: planktonic cells; for P. aeruginosa MIC50 / MIC50: growth inhibited at 50%; for P. aeruginosa MIC100 / MIC: lowest concentration completely inhibiting growth; for MIC50 / MIC: Pseudomonas aeruginosa; for MIC: read-out: P. aeruginosa MIC100
Experimental: as §1

[6] = Cyclic voltammetry, redox potentials; format: physicochemical; details: first reduction step
Experimental: To assess the redox properties of 1-6, detailed electrochemical and spectroscopic studies in various solvents were performed using cyclic voltammetry as well as EPR-spectroelectrochemistry. Additionally, the UV-vis spectra of 1-5 were measured (Figure S8). […] The second reduction step occurred at -1.8 V versus Fc^+/Fc (-1.16 V vs NHE) and was less reversible, indicating a ligand-based reduction. […] In aqueous solutions, the reduction potentials shifted to the less negative values, and reduction was less reversible as shown for 2 in Figure S10. […] Cyclic voltammetric experiments were performed as described previously.[46] The cyclic voltammograms were measured in the cathodic region in different solvents (DMSO, methanol, DMSO/H2O). The analytical purity grade LiClO4 (Sigma-Aldrich) and distilled and deionized water were used for preparation of 1 mM aqueous solutions of the investigated complexes 1-6. EPR spectra were recorded with the EMX plus. In situ UV-vis-NIR spectroelectrochemical measurements were performed on a spectrometer (Avantes, Model AvaSpec-2048x14-USB2 in the spectroelectrochemical cell kit ([…]3)) with the Pt-microstructured honeycomb working electrode, purchased from Pine Research Instrumentation. The cell was positioned in the CUV-UV Cuvette Holder (Ocean Optics) connected to the diode-array UV-vis-NIR spectrometer by optical fibers. UV-vis-NIR spectra were processed using the AvaSoft 7.7 software package. Halogen and deuterium lamps were used as light sources (Avantes, Model AvaLight-DH-S-BAL). The in situ EPR spectroelectrochemical experiments were carried out under an argon atmosphere in the EPR flat cell equipped with a large platinum mesh working electrode. The freshly prepared solutions were carefully purged with argon and the electrolytic cell was polarized in the galvanostatic mode directly in the cylindrical EPR cavity TM-110 (ER 4103 TM), and the EPR spectra were measured in situ.

[7] = Homo sapiens, A2780, 72 h exposure

Compound	MIC50 [4] [µg/mL]	MIC [4] [µg/mL]	MIC50 [5] [µg/mL]	MIC [5] [µg/mL]	logD [2]	IC50 (A2780 cells [1]; 72 h exposure) [µM]	RF (resistance factor) (A2780cisR cells)	IC50 (A2780cisR cells) [µM]	SF (selectivity factor) (HEK293 cells)	IC50 (HEK293 cells) [µM]	log D7.4 [2]	cellular accumulation A2780 (A2780 cells [3]) [nmol Cu/mg protein]	S. aureus MIC50 [4] [µg/mL]	S. aureus MIC100 [4]	P. aeruginosa MIC50 [5] [µg/mL]	P. aeruginosa MIC100 [5]	IC50 (A2780 cells [1]; [7]) [µM]	IC50 (A2780cisR cells; Homo sapiens) [µM]	IC50 (HEK293 cells; Homo sapiens, HEK293) [µM]	also measured
[Cl][Cu][S]C(=NN=Cc1ccc(CN2CCOCC2)cn1)N1CCOCC1 [complex 4, [Cu(L^4)Cl]]						0.08 ± 0.01	3.3	0.26 ± 0.04	3.0	0.24 ± 0.02	+0.12 ± 0.01	3.2 ± 0.7	5	10 µg/mL	100	400 µg/mL				E1/2 Red1 (DMSO) vs Fc+/Fc ([6]; DMSO, vs Fc+/Fc): –0.80 V; E1/2 Red1 (DMSO) vs NHE ([6]; DMSO, vs NHE (in brackets)): –0.16 V; E1/2 Red1 (MeOH) vs Fc+/Fc ([6]; MeOH, vs Fc+/Fc): –0.49 V; E1/2 Red1 (MeOH) vs NHE ([6]; MeOH, vs NHE (in brackets)): +0.15 V
CSC(=NN=Cc1ccc(CN2CCOCC2)cn1)[NH][Cu][Cl] [complex 6, [Cu(L^6)Cl]]						43 ± 3	1.4	62 ± 6	1.7	72	–0.23 ± 0.01	0.47 ± 0.08		NA (NA denotes no antibacterial activity detected (>500 μg/mL))	200	NA (NA denotes no antibacterial activity detected (>500 μg/mL))				
O=C(O)c1cn(C2CC2)c2cc(N3CCNCC3)c(F)cc2c1=O [CPX, ciprofloxacin, reference compound]	0.5 (≈ 1.51 µM)	1 (≈ 3.02 µM)	0.5 (≈ 1.51 µM)	2 (≈ 6.04 µM)																

The next lines start with results.

MIC50 [4] [µg/mL]	MIC [4] [µg/mL]	MIC50 [5] [µg/mL]	MIC [5] [µg/mL]	logD [2]	Compound	IC50 (A2780 cells [1]; 72 h exposure) [µM]	RF (resistance factor) (A2780cisR cells)	IC50 (A2780cisR cells) [µM]	SF (selectivity factor) (HEK293 cells)	IC50 (HEK293 cells) [µM]	log D7.4 [2]	cellular accumulation A2780 (A2780 cells [3]) [nmol Cu/mg protein]	S. aureus MIC50 [4] [µg/mL]	S. aureus MIC100 [4]	P. aeruginosa MIC50 [5] [µg/mL]	P. aeruginosa MIC100 [5]	IC50 (A2780 cells [1]; [7]) [µM]	IC50 (A2780cisR cells; Homo sapiens) [µM]	IC50 (HEK293 cells; Homo sapiens, HEK293) [µM]	also measured
> 500	> 500	> 500	> 500	0.84	CSC(=N)NN=Cc1ccc(CN2CCOCC2)cn1 [HL^6, 5-(Morpholinomethyl)pyridine-2-carboxaldehyde S-Methylisothiosemicarbazone]								>500				157 ± 21	426 ± 44	89 ± 2	
10 (≈ 32.5 µM)	400 (≈ 1300 µM)	70 (≈ 228 µM)	100 (≈ 325 µM)	0.51	CN(C)C(=S)N/N=C/c1ccc(CN2CCOCC2)cn1 [HL^2, 5-(Morpholinomethyl)pyridine-2-carboxaldehyde 4,4-Dimethyl-3-thiosemicarbazone]												0.01 ± 0.001	0.035 ± 0.006	0.03 ± 0.005	
100 (≈ 358 µM)	> 400	> 500	> 500	0.46	NC(=S)NN=Cc1ccc(CN2CCOCC2)cn1 [HL^1, 5-(Morpholinomethyl)pyridine-2-carboxaldehyde Thiosemicarbazone]												7.6 ± 1.9	13 ± 1	9.1 ± 1.7	

Source: publication PMC6348444, “New Water-Soluble Copper(II) Complexes with Morpholine–Thiosemicarbazone Hybrids: Insights into the Anticancer and Antibacterial Mode of Action” (Journal of Medicinal Chemistry, 2018)
